Patent US8247351B2, “Insecticidal compositions having improved effect” (Bayer Cropscience AG, priority 2005, dated 2012)

How the values were obtained:
Type in all cases: in vivo
[1] = system: Aphis gossypii; test: Aphis gossypii test, Example E (sprayed to runoff, ammonium salt boosting)
Procedure: (§1) Solvent: 7 parts by weight dimethylformamide
(§2) Emulsifier: 2 parts by weight alkylaryl polyglycol ether
An appropriate preparation of active ingredient is prepared by mixing 1 part by weight of active ingredient with the stated amounts of solvent and emulsifier and diluting the concentrate with emulsifier-containing water to the desired concentration. For the application with ammonium salts or phosphonium salts, these salts are added in a concentration of 1000 ppm to the spray liquor.
(§3) Cotton plants (Gossypium hirsutum) heavily infested by the cotton aphid (Aphis gossypii) are sprayed to runoff with the preparation of active ingredient at the desired concentration.
(§4) After the desired time the destruction in % is ascertained. 100% means that all of the aphids have been killed; 0% means than no aphids were killed.

[2] = system: Myzus persicae; test: Myzus persicae test, Example F (sprayed to runoff, ammonium salt plus penetrant)
Procedure: as §1, §2
An appropriate preparation of active ingredient is prepared by mixing 1 part by weight of active ingredient with the stated amounts of solvent and emulsifier and diluting the concentrate with water to the desired concentration. For the application with ammonium salts or phosphonium salts and penetrant (rapeseed oil methyl ester 500 EW), they are each added in a concentration of 1000 ppm to the spray liquor.
After the desired time the destruction in % is ascertained. 100% means that all of the animals have been killed; 0% means that no animals have been killed.

[3] = system: Myzus persicae; test: Myzus persicae test, Example D (sprayed to runoff, ammonium salt boosting)
Procedure: as §1, §2
An appropriate preparation of active ingredient is prepared by mixing 1 part by weight of active ingredient with the stated amounts of solvent and emulsifier and diluting the concentrate with water to the desired concentration. For the application with ammonium salts or phosphonium salts, these salts are added in a concentration of 1000 ppm to the spray liquor.
Paprika plants (Capsicum annum) heavily infested by the green peach aphid (Myzus persicae) are treated by being. sprayed to runoff with the preparation of active ingredient at the desired concentration. After the desired time the destruction in % is ascertained. 100% means that all of the animals have been killed; 0% means that no animals have been killed.

[4] = system: Aphis gossypii; test: Aphis gossypii test, Example G (sprayed to runoff, ammonium salt plus penetrant)
Procedure: as §1, §2
An appropriate preparation of active ingredient is prepared by mixing 1 part by weight of active ingredient with the stated amounts of solvent and emulsifier and diluting the concentrate with emulsifier-containing water to the desired concentration. For the application with ammonium salts or phosphonium salts and penetrants (rapeseed oil methyl esters 500 EW), they are each added in a concentration of 1000 ppm a.i. to the spray liquor.
as §3, §4

[5] = 0.8 ppm active ingredient, +AS (1000 ppm)
[6] = 0.8 ppm active ingredient, no additive
[7] = 4 ppm active ingredient, +AS (1000 ppm)
[8] = 4 ppm active ingredient, no additive
[9] = 0.8 ppm active ingredient, +RME (1000 ppm)
[10] = 0.8 ppm active ingredient, +RME +AS (each 1000 ppm)
[11] = 4 ppm active ingredient, +RME (1000 ppm)
[12] = 4 ppm active ingredient, +RME +AS (each 1000 ppm)
[13] = 20 ppm active ingredient, +AS (1000 ppm)
[14] = 20 ppm active ingredient, no additive

With Cc1cc(Cl)cc(C)c1C1=C(O)C2(CCC3(CC2)OCCO3)NC1=O [Example I-1-a-4] the “Degree of destruction/% after 6 days” value [1, 5] was 65%, the “Degree of destruction/% after 6 days” value [1, 6] was 15% and the “Degree of destruction/% after 6 days” value [1, 7] was 85%. For the same compound, the “Degree of destruction/% after 6 days” value [1, 8] was 60%, the “Degree of destruction/% after 6 days” value [2, 5] was 5% and the “Degree of destruction/% after 6 days” value [2, 9] was 0%. For the same compound, the “Degree of destruction/% after 6 days” value [2, 10] was 20%, the “Degree of destruction/% after 6 days” value [2, 6] was 0% and the “Degree of destruction/% after 6 days” value [2, 7] was 65%. The “Degree of destruction/% after 6 days” value [2, 11] was 95%, the “Degree of destruction/% after 6 days” value [2, 12] was 98% and the “Degree of destruction/% after 6 days” value [2, 8] was 40%. For the same compound, the “Degree of destruction/% after 6 days” value [3, 7] was 65%, the “Degree of destruction/% after 6 days” value [3, 8] was 40% and the “Degree of destruction/% after 6 days” value [3, 13] was 98%. The “Degree of destruction/% after 6 days” value [3, 14] was 95%, the “Degree of destruction/% after 6 days” value [4, 5] was 65% and the “Degree of destruction/% after 6 days” value [4, 9] was 30%. For the same compound, the “Degree of destruction/% after 6 days” value [4, 10] was 80% and the “Degree of destruction/% after 6 days” value [4, 6] was 15%.

In the case of COc1cc(C)cc(Cl)c1C1=C(O)C2(CCC(OC)CC2)OC1=O (stereo not shown) [Example I-2-a-4], the “Degree of destruction/% after 6 days” value [1, 5] is reported as 45%, the “Degree of destruction/% after 6 days” value [1, 6] is reported as 10% and the “Degree of destruction/% after 6 days” value [1, 7] is reported as 90%. The “Degree of destruction/% after 6 days” value [1, 8] was 70%, the “Degree of destruction/% after 6 days” value [2, 7] was 0% and the “Degree of destruction/% after 6 days” value [2, 11] was 0%. For the same compound, the “Degree of destruction/% after 6 days” value [2, 12] was 70%, the “Degree of destruction/% after 6 days” value [2, 8] was 0% and the “Degree of destruction/% after 6 days” value [3, 13] was 80%. For the same compound, the “Degree of destruction/% after 6 days” value [3, 14] was 60%, the “Degree of destruction/% after 6 days” value [4, 5] was 45% and the “Degree of destruction/% after 6 days” value [4, 9] was 45%. For the same compound, the “Degree of destruction/% after 6 days” value [4, 10] was 70% and the “Degree of destruction/% after 6 days” value [4, 6] was 10%.

CO[C@H]1CC[C@]2(CC1)NC(=O)C(c1c(C)cc(I)cc1C)=C2O [Example I-1-a-7] was tested, and the “Degree of destruction/% after 6 days” value [1, 7] was 90%, the “Degree of destruction/% after 6 days” value [1, 8] was 55% and the “Degree of destruction/% after 6 days” value [1, 13] was 99%. The “Degree of destruction/% after 6 days” value [1, 14] was 85%, the “Degree of destruction/% after 6 days” value [2, 5] was 10% and the “Degree of destruction/% after 6 days” value [2, 9] was 35%. The “Degree of destruction/% after 6 days” value [2, 10] was 75%, the “Degree of destruction/% after 6 days” value [2, 6] was 0% and the “Degree of destruction/% after 6 days” value [3, 7] was 80%. For the same compound, the “Degree of destruction/% after 6 days” value [3, 8] was 40%, the “Degree of destruction/% after 6 days” value [4, 5] was 45% and the “Degree of destruction/% after 6 days” value [4, 9] was 50%. For the same compound, the “Degree of destruction/% after 6 days” value [4, 10] was 75%, the “Degree of destruction/% after 6 days” value [4, 6] was 35% and the “Degree of destruction/% after 6 days” value [4, 7] was 90%. The “Degree of destruction/% after 6 days” value [4, 11] was 85%, the “Degree of destruction/% after 6 days” value [4, 12] was 95% and the “Degree of destruction/% after 6 days” value [4, 8] was 55%.

With COc1cc(C)cc(C)c1-c1c(O)sc(-c2ccc(F)cc2)nc1=O [Example I-5-a-1] the “Degree of destruction/% after 6 days” value [2, 7] was 5%, the “Degree of destruction/% after 6 days” value [2, 11] was 55% and the “Degree of destruction/% after 6 days” value [2, 12] was 95%. For the same compound, the “Degree of destruction/% after 6 days” value [2, 8] was 0%, the “Degree of destruction/% after 6 days” value [3, 13] was 55% and the “Degree of destruction/% after 6 days” value [3, 14] was 0%.

In the case of COC1CCC2(CC1)NC(=O)C(c1c(Cl)cc(Cl)c(C)c1Cl)=C2O (stereo not shown) [Example I-1-a-12], the “Degree of destruction/% after 6 days” value [1, 5] is reported as 45%, the “Degree of destruction/% after 6 days” value [1, 6] is reported as 5% and the “Degree of destruction/% after 6 days” value [1, 7] is reported as 95%. For the same compound, the “Degree of destruction/% after 6 days” value [1, 8] was 65%, the “Degree of destruction/% after 6 days” value [2, 7] was 5% and the “Degree of destruction/% after 6 days” value [2, 11] was 0%. For the same compound, the “Degree of destruction/% after 6 days” value [2, 12] was 50%, the “Degree of destruction/% after 6 days” value [2, 8] was 0% and the “Degree of destruction/% after 6 days” value [2, 13] was 65%. For the same compound, the “Degree of destruction/% after 6 days” value ([2]; 20 ppm active ingredient, +RME (1000 ppm)) was 70%, the “Degree of destruction/% after 6 days” value ([2]; 20 ppm active ingredient, +RME +AS (each 1000 ppm)) was 98% and the “Degree of destruction/% after 6 days” value [2, 14] was 55%. For the same compound, the “Degree of destruction/% after 6 days” value [3, 13] was 65%, the “Degree of destruction/% after 6 days” value [3, 14] was 55% and the “Degree of destruction/% after 6 days” value [4, 5] was 45%. For the same compound, the “Degree of destruction/% after 6 days” value [4, 9] was 45%, the “Degree of destruction/% after 6 days” value [4, 10] was 65% and the “Degree of destruction/% after 6 days” value [4, 6] was 5%.

With Cc1ccc(-c2ccc(Cl)cc2)cc1C1=C(O)C(C)(C)NC1=O [Example I-1-a-3] the “Degree of destruction/% after 6 days” value [1, 7] was 35%, the “Degree of destruction/% after 6 days” value [1, 8] was 5% and the “Degree of destruction/% after 6 days” value [1, 13] was 80%. The “Degree of destruction/% after 6 days” value [1, 14] was 20%, the “Degree of destruction/% after 6 days” value [2, 7] was 20% and the “Degree of destruction/% after 6 days” value [2, 11] was 10%. For the same compound, the “Degree of destruction/% after 6 days” value [2, 12] was 90%, the “Degree of destruction/% after 6 days” value [2, 8] was 0% and the “Degree of destruction/% after 6 days” value [3, 7] was 90%. For the same compound, the “Degree of destruction/% after 6 days” value [3, 8] was 0%, the “Degree of destruction/% after 6 days” value [3, 13] was 75% and the “Degree of destruction/% after 6 days” value [3, 14] was 60%.

With COC1CCC2(CC1)OC(=O)C(c1c(C)cc(C)cc1C)=C2O (stereo not shown) [Example I-2-a-1] the “Degree of destruction/% after 6 days” value [1, 5] was 85%, the “Degree of destruction/% after 6 days” value [1, 6] was 0% and the “Degree of destruction/% after 6 days” value [1, 7] was 95%. The “Degree of destruction/% after 6 days” value [1, 8] was 80%, the “Degree of destruction/% after 6 days” value [2, 5] was 65% and the “Degree of destruction/% after 6 days” value [2, 9] was 95%. The “Degree of destruction/% after 6 days” value [2, 10] was 100%, the “Degree of destruction/% after 6 days” value [2, 6] was 20% and the “Degree of destruction/% after 6 days” value [3, 5] was 65%. For the same compound, the “Degree of destruction/% after 6 days” value [3, 6] was 20%, the “Degree of destruction/% after 6 days” value [3, 7] was 98% and the “Degree of destruction/% after 6 days” value [3, 8] was 90%.

With COC1CCC2(CC1)NC(=O)C(c1cc(C)c(Cl)cc1C)=C2O (stereo not shown) [Example I-1-a-10] the “Degree of destruction/% after 6 days” value [1, 7] was 65%, the “Degree of destruction/% after 6 days” value [1, 8] was 20% and the “Degree of destruction/% after 6 days” value [1, 13] was 75%. The “Degree of destruction/% after 6 days” value [1, 14] was 40%, the “Degree of destruction/% after 6 days” value [2, 7] was 35% and the “Degree of destruction/% after 6 days” value [2, 11] was 75%. For the same compound, the “Degree of destruction/% after 6 days” value [2, 12] was 85%, the “Degree of destruction/% after 6 days” value [2, 8] was 0% and the “Degree of destruction/% after 6 days” value [3, 7] was 35%. For the same compound, the “Degree of destruction/% after 6 days” value [3, 8] was 0%, the “Degree of destruction/% after 6 days” value [3, 13] was 85% and the “Degree of destruction/% after 6 days” value [3, 14] was 40%.
